The structures appear in SMILES notation. Bounds are passed on as bounds.

In experiment [1] the target is T1, Cholinesterase (Homo sapiens, UniProt P06276). The experiment is described as follows: Inhibition of recombinant human serum BChE using butyrylthiocholine iodide as substrate preincubated for 20 mins followed by substrate addition measured after 5 mins by Ellman's method. On the technique in general: Ellman's reagent forms a yellow product with free thiols.
The target of experiment [2] is T2, Cholinesterases; ACHE & BCHE (Homo sapiens) (UniProt P06276+P22303). The experiment is described as follows: Selectivity index, ratio of IC50 for recombinant human serum BChE to IC50 for recombinant human serum AChE. In kind it is protein assay.
T2 sequence (P06276 whole entry, looked up): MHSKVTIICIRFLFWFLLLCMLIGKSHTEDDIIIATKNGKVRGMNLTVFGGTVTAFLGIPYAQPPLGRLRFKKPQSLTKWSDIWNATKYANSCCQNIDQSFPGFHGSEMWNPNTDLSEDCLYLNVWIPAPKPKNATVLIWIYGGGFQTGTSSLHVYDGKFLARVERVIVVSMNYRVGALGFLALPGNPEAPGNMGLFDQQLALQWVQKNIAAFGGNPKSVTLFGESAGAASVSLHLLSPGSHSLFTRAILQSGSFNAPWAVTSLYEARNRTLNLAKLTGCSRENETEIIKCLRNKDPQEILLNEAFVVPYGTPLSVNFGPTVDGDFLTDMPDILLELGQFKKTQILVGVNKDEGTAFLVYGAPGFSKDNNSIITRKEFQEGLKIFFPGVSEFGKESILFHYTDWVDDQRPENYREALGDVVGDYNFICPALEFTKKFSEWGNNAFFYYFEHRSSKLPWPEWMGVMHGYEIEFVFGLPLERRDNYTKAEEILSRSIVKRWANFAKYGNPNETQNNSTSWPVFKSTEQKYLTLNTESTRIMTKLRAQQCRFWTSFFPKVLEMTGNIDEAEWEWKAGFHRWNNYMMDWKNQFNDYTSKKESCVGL
T2 sequence (P22303 whole entry, looked up): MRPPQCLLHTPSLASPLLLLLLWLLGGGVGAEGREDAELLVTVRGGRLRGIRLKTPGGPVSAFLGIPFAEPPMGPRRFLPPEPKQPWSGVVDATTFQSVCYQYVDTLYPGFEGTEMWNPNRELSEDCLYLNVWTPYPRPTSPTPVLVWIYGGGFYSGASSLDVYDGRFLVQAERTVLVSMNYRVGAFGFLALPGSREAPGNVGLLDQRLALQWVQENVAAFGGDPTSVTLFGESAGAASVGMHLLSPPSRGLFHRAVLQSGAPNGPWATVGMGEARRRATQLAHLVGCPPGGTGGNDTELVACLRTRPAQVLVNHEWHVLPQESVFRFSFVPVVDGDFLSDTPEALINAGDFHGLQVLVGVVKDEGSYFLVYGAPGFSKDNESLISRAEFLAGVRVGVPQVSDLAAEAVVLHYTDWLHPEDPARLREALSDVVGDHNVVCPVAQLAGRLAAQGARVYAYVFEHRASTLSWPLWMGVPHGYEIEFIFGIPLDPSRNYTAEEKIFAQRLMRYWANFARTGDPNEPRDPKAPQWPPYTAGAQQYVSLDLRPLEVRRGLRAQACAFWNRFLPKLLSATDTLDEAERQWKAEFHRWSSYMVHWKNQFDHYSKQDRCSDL
For experiment [3], the target named is T3, Acetylcholinesterase (Homo sapiens, UniProt P22303). The experiment is described as follows: Inhibition of recombinant human serum AChE using acetylthiocholine iodide as substrate preincubated for 20 mins followed by substrate addition measured after 5 mins by Ellman's method.
T3 sequence (P22303 whole entry): as the sequence (P22303 whole entry, looked up) above
The target of experiment [4] is T1, Cholinesterase. The experiment is described as follows: Inhibition of recombinant human serum BChE using acetylthiocholine iodide as substrate preincubated for 20 mins followed by substrate addition by Ellman's method.
The target in experiment [5] is T3, Acetylcholinesterase. The experiment is described as follows: Inhibition of recombinant human serum AChE using acetylthiocholine iodide as substrate preincubated for 20 mins followed by substrate addition by Ellman's method.
In experiment [6] the target is T1, Cholinesterase. Briefly: Inhibition of human whole red blood cells BChE using butyrylthiocholine iodide as substrate incubated for 25 mins by Ellman's method.
In experiment [7] the target is T3, Acetylcholinesterase. The experiment is described as follows: Inhibition of human whole red blood cells AChE using acetylthiocholine iodide as substrate incubated for 25 mins by Ellman's method.
Experiment [8] has as its target T2, Cholinesterases; ACHE & BCHE (Homo sapiens). Briefly: Selectivity index, ratio of IC50 for human whole red blood cells BChE to IC50 for human whole red blood cells AChE.
Experiment [9] addresses T3, Acetylcholinesterase.
Description: Inhibition of human erythrocyte AChE using acetylthiocholine iodide as substrate preincubated for 30 mins followed by substrate addition measured after 5 mins by Ellman's method
The target in experiment [10] is T1, Cholinesterase. The experiment is described as follows: Inhibition of human serum BChE using butyrylthiocholine as substrate by Ellman's method.

T1 sequence (P06276 whole entry): as the sequence (P06276 whole entry, looked up) above

Broadly, the IC50 is the midpoint of a concentration-inhibition curve. On to `CNC(=O)Oc1cccc(CN(C)CCCCCCOc2ccc3c(c2)O/C(=C\c2cc(OC)c(OC)c(OC)c2)C3=O)c1`, for which the IC50 on Cholinesterase [1] was 136 nM; on Acetylcholinesterase [3], 0.52 nM. Moreover, the Ratio IC50 in experiment [2] was 261.

As to `CNC(=O)Oc1cccc(CN(C)CCCCCCCOc2ccc(-c3cc4ccccc4oc3=O)cc2)c1`, the Ratio IC50 in [2] is 49. Besides, the IC50 amounted to 59.4 nM at Cholinesterase [4] and 1.2 nM on Acetylcholinesterase [5].

Consider `CNC(=O)Oc1cccc(CN(C)CCCCCCOc2ccc(C(=O)/C=C/c3cc(OC)c(OC)c(OC)c3)c(O)c2)c1`, for which the IC50 amounted to 30.2 nM at Cholinesterase [1] and 1.33 nM at Acetylcholinesterase [3]. In addition, in experiment [2], the Ratio IC50 amounted to 23.

Take `CNC(=O)Oc1cccc(CN(C)CCCCCCCOc2ccc(-c3cc(=O)c4ccccc4o3)cc2)c1`: the Ratio IC50 in experiment [2] came out at 96. Moreover, the IC50 on Cholinesterase [4] worked out at 70.2 nM; at Acetylcholinesterase [5], 0.73 nM.

For the compound `COc1ccc(NC(=O)Oc2ccc3c(c2)[C@]2(O)CCN(C(C)=O)[C@@H]2N3)cc1`, the IC50 is 2310 nM on Cholinesterase [6] and above 100000 nM against Acetylcholinesterase [7]. Further, the Ratio IC50 in experiment [8] is above 43.

In the case of `CNC(=O)Oc1cccc(CN(C)CCCCCCCOc2ccc3c(=O)c4ccccc4oc3c2)c1`, the IC50 against Acetylcholinesterase [9] was 51.6 nM; against Cholinesterase [10] it was 0.32 nM.

For `CC(=O)N1CC[C@@]2(O)c3cc(OC(=O)Nc4ccccc4)ccc3N[C@@H]12`, the values for the IC50 on Cholinesterase [6] and against Acetylcholinesterase [7] were above 100000 nM and 250 nM, respectively. For the same compound, the Ratio IC50 in experiment [8] is above 400.

For the origin of these results see ChEMBL document CHEMBL5214927, “Recent advance on carbamate-based cholinesterase inhibitors as potential multifunctional agents against Alzheimer's disease” (Eur J Med Chem, 2022).
